Laboratory results: patent US20070173416A1, “Well treatment compositions for use in acidizing a well” (Halliburton Energy Services, Inc., priority 2006, published 2007)
Structures can show the parent of a compound that is named as a salt. Where two headings read alike, the source gives them in different places.

Experiments:
[1] = physchem; conditions: for half-life / Half-Life in Neutral Water at 100° C.: buffer; for hydrolysis rate / reaction rate (comparison in words): deionized water
Description: In the following examples, various ester hydrolysis reactions were run in the presence of calcium carbonate (CaCO3) to simulate the consumption of filter cake material. The acid evolved in each reaction was measured per unit of time. The acid generated upon hydrolysis was rapidly consumed in a secondary reaction that produced carbon dioxide (CO2). The half-life was secured when half of the CaCO3 was consumed. That is, using PV=nRT, the amount of CaCO3 that would yield approximately 1 liter of CO2 was calculated to be about 4.47 grams. We doubled the amount of CaCO3 (8.94 grams) for the reactions and then calculated the half-life based on the yield of 1 liter of CO2. Unless otherwise specified, all half-life quotations are actually the time required for 4.47 grams of CaCO3 to be consumed.
The following general procedure was used in each of the examples. The closed system reactor shown in FIG. 1 was used to measure the amount of CO2 gas that evolved in each reaction. Water or brine was added to a boiling flask 10, which was heated to 100° C. […] Once the liquid was boiling, a weighed amount of ester was added to flask 10. The amount of ester employed was always in ratio to the water or to the make-up water used to formulate the brine except where commercially available brines were used. Following addition of the ester to the boiling liquid, a reflux condenser 12 was affixed to flask 10. The top of condenser 12 was fixed with an adapter 14 to an inlet tube 18 in a 2-hole rubber stopper 16. The inlet tube 18 was passed through stopper 16, providing a seal. An outlet tube 22 was run from the bottom of a flask 20 to a 1,000 mL graduated cylinder 24. The flask 20 was charged with XP-07 base oil, commercially available from Halliburton Energy Services, Inc. The outlet tube 22 served the purpose of discharging the oil into graduated cylinder 24. The hydrolysis reaction produced acid in flask 10 that reacted with the CaCO3 to produce CO2 gas. The gas displaced the oil in flask 20 into graduated cylinder 24. The rate of CO2 evolution thus could be monitored visually by reading of the amount of oil in graduated cylinder 24 per unit of time.
Solutions containing various esters of lactic acid and of glycerol (i.e., monoacetin, ethyl lactate, triacetin, tripropionin), butyl formate (a control), and BDF-325 diethyleneglycol diformate (a control) in neutral water were prepared and combined with a molar ratio of CaCO3. Hydrolysis reactions were then carried out using the resulting solutions at 100° C. The hydrolysis reactions were monitored, and the half-lives of the esters were compared. The volume of oil displaced by the CO2 gas is plotted as a function of time in FIG. 2. […] The butyl formate to CaCO3 molar ratio was doubled for comparison purposes.
Solutions containing 10 volume % monoacetin, diacetin, and triacetin in deionized water were prepared and combined with a molar ratio of CaCO3. Hydrolysis reactions were then carried out using the resulting solutions at 100° C. The hydrolysis reactions were monitored, and the half-lives of the esters were compared. The volume of oil displaced by the CO2 gas is plotted as a function of time in FIG. 3.

[2] = Solubility in water; assay type: physicochemical
[3] = at 100° C.; cited from earlier work
[4] = Half-Life in Neutral Water at 100° C.
[5] = hydrolysis in neutral water at 100° C.

SMILES | half-life [1, 4] [h] | hydrolysis rate / reaction rate (comparison in words) ([1]; 100° C.) | Pseudo First Order Rate Constant [1, 5] | also measured
CCCCOC(=O)C(C)O (centres unmarked) [Butyl lactate] | 21.3 | faster than that of the butyl formate | 9.03 × 10^−6 sec.^−1 | solubility in water [2]: slightly soluble
CCCOC(=O)C(C)O (centres unmarked) [Propyl lactate] | 25.8 |  | 7.4 × 10^−6 sec.^−1 | 
CCCCOC=O [butyl formate, reference compound] |  | slow reaction rate |  | solubility in water [2]: poor solubility
CC(=O)OCC(O)CO (centres unmarked) [Monoacetin] |  |  | 1.8 × 10^−5 sec.^−1 | half-life versus targeted range (greater than 10 hours at 100° C. desired) ([1]; 10 volume % in deionized water, 100° C.): within the targeted range; consumed more slowly relative to the other two acetins ([1]; 10 volume % in deionized water, 100° C., vs triacetin and diacetin): 4-5 times; Half-Life in Neutral Water at 100° C. [1]: 38,400 seconds
CCC(=O)OCC(COC(=O)CC)OC(=O)CC [Tripropionin] |  |  |  | Pseudo First Order Rate Constant [1]: 1.05 × 10^−5 sec.^−1; Half-Life in Neutral Water at 100° C. [1]: 32,344.83 seconds
CCOC(=O)C(C)O (centres unmarked) [Ethyl Lactate] | 8.71 |  | 2.2 × 10^−5 sec.^−1 | hydrolysis in deionized water and various brines ([1]; 10 volume % in deionized water and various brines, 100° C.): performed consistently; half-life ([1]; half-life): 10 to 11 h
COC(=O)C(C)O (centres unmarked) [Methyl lactate] | 2.71 |  | 2.1 × 10^−5 sec.^−1 | 
CC(=O)OCC(O)COC(C)=O [Diacetin] |  | very similar | 4.75 × 10^−5 sec.^−1 | Half-Life in Neutral Water at 100° C. [1]: 14,600 seconds
CC(=O)OCC(COC(C)=O)OC(C)=O [Triacetin] | 2.73 | very similar | 7.04 × 10^−5 sec.^−1 | 
O=COCCOCCOC=O [diethyleneglycol diformate, reference compound] |  |  |  | half-life ([1]; half-life): 0.3 to 0.333 h
CC(=O)O [acetic acid] |  |  |  | strength of the acid (pH) [3]: 4.76
